Data set [1] has as its system glutamatergic excitatory synapses in the cortex. As to the kind of experiment: Synapse assay on mouse brain sections (VGlut2/PSD95 co-localized puncta in cortex) after GBP injection. Type of data set: in vivo, mice. The protocol: To determine whether GBP similarly blocks synapse formation in vivo, neonatal mice were injected with either GBP or saline, for the first postnatal week, which coincides with the initiation of synapse formation in the brain (see Experimental Procedures). […] At this age P7 glutamatergic synapses in the cortex are predominantly VGlut2 positive (Miyazaki et al., The Eur. J. of Neuroscience, 17:2563-2572, 2003). Therefore, co-immunostaining of sagital brain sections from (P7) saline or GBP-injected, mice was carried out with antibodies against VGlut2 and PSD95 and the number of co-localized pre- and post-synaptic puncta was quantified to determine synaptic density in the cortex of these mice. […] This difference was mainly due to a severe decrease in synapse number in half of the GBP injected animals. […] GBP injection affected both VGlut2 and PSD95 puncta by reducing their number, size, and co-localization (FIG. 7E) similar to its effect on synaptic puncta in vitro (FIG. 7A). […] It is interesting that the effect of GBP in vivo is an “all or none” effect rather than a gradual decrease in synapse number, and that only 50% of the mice responded to GBP injection. This could be due to a critical threshold concentration of GBP necessary to be effective in blocking synapse formation, which might only be achieved in some of the mice. In three repeated experiments, however, we observed only half of the mice were affected by GBP, even when we increased the total dosage and frequency from once a day to three times per day (see below and Experimental Procedures), and even though an inbred strain of mice was used.
Brains were immersed in 4% paraformaldehyde (PFA), fixed overnight at 4° C., and cryo-protected in 30% sucrose. For synaptic staining, tissue was embedded in a 2:1 mixture of 20% sucrose:OCT in PBS, and cryo-sectioned (12 μm). Sections were dried at 37° C., washed three times in PBS, and blocked with 20% normal goat serum (NGS, Invitrogen) in PBS 1 hr. Primary antibodies were diluted in PBS with 0.3% triton and 10% NGS as follows: PSD95 (Zymed, rabbit, 1:500) and VGlut1 and VGlut2 (Chemicon, guinea pig, 1:2500) incubated overnight at 4° C. […]
Three independent sagital brain sections per animal were stained with pre- and post-synaptic markers and 5 μm confocal scans were performed (optical section width 0.38 μm, 14 optical sections each) at the cortex. […] Merged single optical section images at 1 μm intervals were analyzed using the ImageJ-puncta analyzer option to count for number of co-localized pre- and post-synaptic puncta (5 optical sections per brain section and 15 total images per brain). Average synaptic density per imaged area was calculated for each condition. […]

In data set [2] the test system is barrel cortex. In words: Lesion-induced barrel cortex plasticity assay in neonatal mice. Type of data set: in vivo. The source says: Understanding how the brain remodels its neuronal networks has been a major goal of neurobiology, as these processes underlie learning, memory and recovery from injury. Is astrocyte-induced synapse formation involved in remodeling neural circuits during development? To explore this question a well-established developmental plasticity paradigm, ‘the barrel cortex plasticity’ assay, was used. The nerves that innervate the major whiskers on the snout of the mouse project to the brain as a topographically ordered “somatotopic” map where afferent axons and target cells form ordered modules that recapitulate the structural organization seen on the whisker pad (Erzurumlu et al., The Anatomical Record 288:121-134, 2006). First, neurons of the trigeminal nerve innervate the mystacial vibrissae (whiskers) and send projections […]. These projections then form synapses at the brainstem (barrelettes) and their afferents then project and synapse at the thalamus (barreloids). […]
Two groups of neonatal mice were injected either with GBP or an equal volume of saline daily starting at P0 until P7. […] The mice were then sacrificed at P7 and their barrel structure corresponding to both the unlesioned “control” hemisphere and the lesioned hemisphere were analyzed. […]

In data set [3] the test system is naive rats. In words: TSP4-induced behavioral hypersensitivity in naive rats (paw withdrawal threshold, von Frey). The settings on record: 1 mg/rat bolus i.t., three days after TSP4 (45 ug/rat). Type of data set: in vivo, rat.
Data set [4] deals with RGCs. The following applies: culture media containing GBP.
Data set [5] relates to RGCs. In words: RGC neurite outgrowth. The settings on record: data not shown.
Data set [6] has as its system RGCs.

Experimental findings from patent publication US8491897B2, “Treatment of neuropathic pain using anti-thrombospondin antibodies” (The Board of Trustees of the Leland Stanford Junior …, priority 2007, dated 2013) are described below.

“Also recorded” adds a separate entry of the source.

`NCC1(CC(=O)O)CCCCC1` [Gabapentin, 1-(aminomethyl)cyclohexaneacetic acid]: the “proportion of injected mice that responded (severe reduction of synaptic puncta)” value in data set [1] (P7 mice) is 50%. Further, the “density of VGlut2/PSD95 excitatory synapses in the cerebral cortex” value in data set [1] (P7 mice injected i.p. daily in first postnatal week, vs saline, listed as GBP) is “significant decrease in the density of excitatory synapses; also recorded: significant decrease in the number of VGlut2-PSD95 synapses”. Moreover, in data set [1] (in the half of the mice that responded), the “VGlut2/PSD95 synaptic density relative to saline injected values” is “less than 10%”. The number of neurons entry in data set [1] (responding mice) is “no apparent effect on the number of neurons”. In addition, in data set [2] (daily injection P0 to P7, listed as GBP), the “barrel formation on unlesioned control side” value is on record as “typical barrels formed on the control side; also recorded: did not affect the barrel cortex formation”. The “proportion of injected mice with atypical/aberrant barrel cortex plasticity response” value in data set [2] (lesioned side, daily injection P0 to P7, C-row whisker lesion at P1) is reported as 50%. Moreover, the “effect on TSP4-induced behavioral hypersensitivity” value in data set [3] was “blocked the pain-inducing effects of TSP4”. In addition, the RGC survival in data set [4] came to 66.5±4.1%. Besides, in data set [5], the neurite outgrowth result was “did not affect neurite outgrowth”. Besides, the “toxicity to the RGCs” value in data set [6] is “not toxic”.
